Tested on: dyslipidemic patients with renal impairment
Assay: Example 3 phase III 52-week trial: cholesterol in lipoprotein subclasses by HPLC
Type: in vivo, human
Details: 0.2 (0.4) mg/day
Method: This was a multicenter, single-arm, open-label, phase III trial. The inclusion criteria were as follows: (1) patients with dyslipidemia aged >20 years at the time of informed consent; (2) men and postmenopausal women; (3) fasting serum TG≥1.70 mmol/L (150 mg/dL) at two consecutive measurements during screening; and (4) patients who followed dietary and physical exercise guidance for >12 weeks before enrollment.
The major exclusion criteria were as follows: (1) patients with fasting serum TG≥5.65 mmol/L (500 mg/dL) during screening; (2) patients with poorly controlled diabetes mellitus (hemoglobin A1c [HbA1c]≥10.5%); (3) patients with concurrent poorly controlled thyroid disease; (4) men with serum creatinine ≥2.5 mg/dL and women with serum creatinine ≥2.0 mg/dL during screening who were already on statin therapy; (5) patients with eGFR<45 mL/min/1.73 m^2 during screening who were already on statin therapy; (6) patients with CK>5ULN (270 IU/L for men, 150 IU/L for women) during screening who were already on statin therapy; (7) patients with serious liver disease (cirrhosis Child-Pugh Class B or higher); (8) patients with gallstones or serious biliary tract disease; (9) patients who had suffered an acute myocardial infarction or stroke within three months before informed consent; and (10) patients with New York Heart Association class III or IV heart failure.
During the screening period (8 weeks prior to treatment initiation), tests were performed twice to determine patient eligibility. Thereafter, eligible patients orally received pemafibrate 0.2 mg/day (twice daily) for 52 weeks. From week 12 of the treatment period onwards, the investigators were instructed that the dose could be increased from 0.2 mg/day to 0.4 mg/day (twice daily) if there was an inadequate response to the initial dose based on fasting serum TG levels ≥1.70 mmol/L (150 mg/dL). Fasting blood and urine samples were collected at each visit. Blood and urine sample in patients with hemodialysis were collected just before dialysis. LDL-C levels were measured using the direct method. […]
The primary efficacy endpoint was the percent change in fasting serum TG from baseline to the last evaluation point. The primary safety endpoints were the incidence of an AE or ADR occurring after drug administration during the study. Secondary efficacy endpoints included percent changes in lipid variables and changes in inflammation variables at week 52 [using the last-observation-carried-forward (LOCF)]. Secondary safety endpoints included changes in the levels of aspartate aminotransferase (AST), ALT, -GT, ALP, serum creatinine, eGFR, and CK at week 52. Each baseline value was defined as (1) the mean of the corresponding values in the first and second tests at the screening examination and at week 0 of the treatment period for fasting serum TG, HDL-C, total cholesterol (TC), LDL-C, and non-HDL-C; and (2) the value at week 0 of the treatment period for the other secondary variables.
The numbers of patients with AEs and ADRs and the incidences of AEs and ADRs were calculated in the analysis of primary safety endpoints. For the secondary efficacy endpoints, one-sample t-tests or Wilcoxon signed-rank tests [for high-sensitivity C-reactive protein (hsCRP) and IL-1] were performed. The secondary safety endpoints were analyzed with Wilcoxon signed-rank tests. A two-sided significance level of 0.05 was used. SAS v. 9.3 (SAS Institute Inc., Cary, N.C., USA) was used for these analyses. Where indicated, the data are expressed as means±standard deviation (SD).

SMILES: CC[C@@H](Oc1cccc(CN(CCCOc2ccc(OC)cc2)c2nc3ccccc3o2)c1)C(=O)O [Pemafibrate, (2R)-2-[3-({1,3-benzoxazol-2-yl[3-(4-methoxyphenoxy)propyl]amino}methyl)phenoxy]butanoic acid]
- CM-C % Change from baseline at Week 52 (LOCF) (All Participants): −64.3%
- CM-C Week 52 (LOCF) (All Participants): 0.039 mmol/L
- Large HDL-C % Change from baseline at Week 52 (LOCF) (All Participants): −9.2%
- Large HDL-C Week 52 (LOCF) (All Participants): 0.115 mmol/L
- Large LDL-C % Change from baseline at Week 52 (LOCF) (All Participants): 63.1%
- Large LDL-C Week 52 (LOCF) (All Participants): 0.748 mmol/L
- Medium HDL-C % Change from baseline at Week 52 (LOCF) (All Participants): 19.3%
- Medium HDL-C Week 52 (LOCF) (All Participants): 0.443 mmol/L
- Medium LDL-C % Change from baseline at Week 52 (LOCF) (All Participants): 17.3%
- Medium LDL-C Week 52 (LOCF) (All Participants): 1.194 mmol/L
- Small HDL-C % Change from baseline at Week 52 (LOCF) (All Participants): 24.2%
- Small HDL-C Week 52 (LOCF) (All Participants): 0.473 mmol/L
- Small LDL-C % Change from baseline at Week 52 (LOCF) (All Participants): −20.6%
- Small LDL-C Week 52 (LOCF) (All Participants): 0.517 mmol/L
- VLDL-C % Change from baseline at Week 52 (LOCF) (All Participants): −24.9%
- VLDL-C Week 52 (LOCF) (All Participants): 0.866 mmol/L
- Very large HDL-C % Change from baseline at Week 52 (LOCF) (All Participants): 4.4%
- Very large HDL-C Week 52 (LOCF) (All Participants): 0.048 mmol/L
- Very small HDL-C % Change from baseline at Week 52 (LOCF) (All Participants): 27.9%
- Very small HDL-C Week 52 (LOCF) (All Participants): 0.181 mmol/L
- Very small LDL-C % Change from baseline at Week 52 (LOCF) (All Participants): −11.6%
- Very small LDL-C Week 52 (LOCF) (All Participants): 0.210 mmol/L
- CM-C % Change from baseline at Week 52 (LOCF) (eGFR G1 (≥90)): −54.1%
- CM-C Week 52 (LOCF) (eGFR G1 (≥90)): 0.064 mmol/L
- Large HDL-C % Change from baseline at Week 52 (LOCF) (eGFR G1 (≥90)): −14.1%
- Large HDL-C Week 52 (LOCF) (eGFR G1 (≥90)): 0.107 mmol/L
- Large LDL-C % Change from baseline at Week 52 (LOCF) (eGFR G1 (≥90)): 54.5%
- Large LDL-C Week 52 (LOCF) (eGFR G1 (≥90)): 0.724 mmol/L
- Medium HDL-C % Change from baseline at Week 52 (LOCF) (eGFR G1 (≥90)): 11.4%
- Medium HDL-C Week 52 (LOCF) (eGFR G1 (≥90)): 0.441 mmol/L
- Medium LDL-C % Change from baseline at Week 52 (LOCF) (eGFR G1 (≥90)): 15.5%
- Medium LDL-C Week 52 (LOCF) (eGFR G1 (≥90)): 1.244 mmol/L
- Small HDL-C % Change from baseline at Week 52 (LOCF) (eGFR G1 (≥90)): 18.1%
- Small HDL-C Week 52 (LOCF) (eGFR G1 (≥90)): 0.482 mmol/L
- Small LDL-C % Change from baseline at Week 52 (LOCF) (eGFR G1 (≥90)): −18.0%
- Small LDL-C Week 52 (LOCF) (eGFR G1 (≥90)): 0.576 mmol/L
- VLDL-C % Change from baseline at Week 52 (LOCF) (eGFR G1 (≥90)): −24.6%
- VLDL-C Week 52 (LOCF) (eGFR G1 (≥90)): 0.932 mmol/L
- Very large HDL-C % Change from baseline at Week 52 (LOCF) (eGFR G1 (≥90)): 0.8%
- Very large HDL-C Week 52 (LOCF) (eGFR G1 (≥90)): 0.047 mmol/L
- Very small HDL-C % Change from baseline at Week 52 (LOCF) (eGFR G1 (≥90)): 20.6%
- Very small HDL-C Week 52 (LOCF) (eGFR G1 (≥90)): 0.186 mmol/L
- Very small LDL-C % Change from baseline at Week 52 (LOCF) (eGFR G1 (≥90)): −10.3%
- Very small LDL-C Week 52 (LOCF) (eGFR G1 (≥90)): 0.233 mmol/L
- CM-C % Change from baseline at Week 52 (LOCF) (eGFR G2 (≥60 and <90)): −63.9%
- CM-C Week 52 (LOCF) (eGFR G2 (≥60 and <90)): 0.038 mmol/L
- Large HDL-C % Change from baseline at Week 52 (LOCF) (eGFR G2 (≥60 and <90)): −10.9%
- Large HDL-C Week 52 (LOCF) (eGFR G2 (≥60 and <90)): 0.115 mmol/L
- Large LDL-C % Change from baseline at Week 52 (LOCF) (eGFR G2 (≥60 and <90)): 67.7%
- Large LDL-C Week 52 (LOCF) (eGFR G2 (≥60 and <90)): 0.765 mmol/L
- Medium HDL-C % Change from baseline at Week 52 (LOCF) (eGFR G2 (≥60 and <90)): 17.7%
- Medium HDL-C Week 52 (LOCF) (eGFR G2 (≥60 and <90)): 0.448 mmol/L
- Medium LDL-C % Change from baseline at Week 52 (LOCF) (eGFR G2 (≥60 and <90)): 18.7%
- Medium LDL-C Week 52 (LOCF) (eGFR G2 (≥60 and <90)): 1.226 mmol/L
- Small HDL-C % Change from baseline at Week 52 (LOCF) (eGFR G2 (≥60 and <90)): 23.6%
- Small HDL-C Week 52 (LOCF) (eGFR G2 (≥60 and <90)): 0.477 mmol/L
- Small LDL-C % Change from baseline at Week 52 (LOCF) (eGFR G2 (≥60 and <90)): −20.6%

Source: US11446282B2, “Methods of treating mixed dyslipidemia and hypertriglycertdemia” (Kowa Company, Ltd., priority 2017, dated 2022)
